From patent US10266497B2 (ABIDE THERAPEUTICS, INC., priority 2017, dated 2019)

Key:
MAGL [1] = target: T1, MAGL (Homo sapiens, UniProt Q99685); test: In vitro competitive activity-based protein profiling, MAGL, human; conditions: for inhibition at 1 µM: read-out: MAGL % inh. 1 μM (human)
T1 sequence (Q99685 1-303): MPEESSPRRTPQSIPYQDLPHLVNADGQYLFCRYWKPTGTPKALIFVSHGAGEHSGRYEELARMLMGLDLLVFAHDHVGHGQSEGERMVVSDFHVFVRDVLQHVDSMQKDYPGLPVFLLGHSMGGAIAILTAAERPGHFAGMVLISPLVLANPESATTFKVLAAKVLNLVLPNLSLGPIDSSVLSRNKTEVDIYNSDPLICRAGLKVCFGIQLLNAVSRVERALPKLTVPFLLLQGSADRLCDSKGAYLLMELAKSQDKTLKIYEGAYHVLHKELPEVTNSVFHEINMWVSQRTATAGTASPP

FAAH [2] = target: T2, FAAH (Homo sapiens, UniProt O00519); test: In vitro competitive activity-based protein profiling, FAAH, human; conditions: for inhibition at 1 µM: read-out: FAAH % inh. 1 μM (human)
T2 sequence (O00519 1-579): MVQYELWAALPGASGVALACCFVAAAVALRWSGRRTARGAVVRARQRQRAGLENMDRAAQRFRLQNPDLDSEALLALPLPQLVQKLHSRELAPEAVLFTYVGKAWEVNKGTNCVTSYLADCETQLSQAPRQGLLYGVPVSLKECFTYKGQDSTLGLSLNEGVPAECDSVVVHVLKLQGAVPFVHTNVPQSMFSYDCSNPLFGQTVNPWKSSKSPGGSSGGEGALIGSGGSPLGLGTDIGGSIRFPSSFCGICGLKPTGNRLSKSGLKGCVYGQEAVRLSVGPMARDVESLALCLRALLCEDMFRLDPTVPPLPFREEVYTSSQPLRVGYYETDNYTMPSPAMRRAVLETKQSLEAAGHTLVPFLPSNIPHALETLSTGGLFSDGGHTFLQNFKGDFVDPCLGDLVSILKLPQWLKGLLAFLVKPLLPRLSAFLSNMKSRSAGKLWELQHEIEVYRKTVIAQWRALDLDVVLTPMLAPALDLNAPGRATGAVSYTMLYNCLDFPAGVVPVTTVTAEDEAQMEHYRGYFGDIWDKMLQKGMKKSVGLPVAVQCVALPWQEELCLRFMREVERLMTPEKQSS

MAGL [3] = target: T3, MAGL (Mus musculus, UniProt O35678); test: In vitro competitive activity-based protein profiling, MAGL, mouse; conditions: read-out: MAGL % inh. 1 μM (mouse)
T3 sequence (O35678 1-303): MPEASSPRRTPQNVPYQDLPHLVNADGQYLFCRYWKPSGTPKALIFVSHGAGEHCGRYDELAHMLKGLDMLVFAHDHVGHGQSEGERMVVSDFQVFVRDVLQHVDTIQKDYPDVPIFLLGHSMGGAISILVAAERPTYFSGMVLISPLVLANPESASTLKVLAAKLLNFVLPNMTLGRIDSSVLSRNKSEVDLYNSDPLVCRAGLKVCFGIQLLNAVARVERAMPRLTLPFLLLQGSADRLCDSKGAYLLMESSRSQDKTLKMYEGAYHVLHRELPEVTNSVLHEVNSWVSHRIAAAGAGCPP
Method: Biological Evaluation In Vitro Competitive Activity-Based Protein Profiling.
Proteomes (mouse brain membrane fraction for mouse assays; human prefrontal cortex membrane fractions for human assays) (50 mL, 1.0 mg/mL total protein concentration) were preincubated with varying concentrations of inhibitors at 37° C. After 30 min, FP-Rh (1.0 mL, 50 mM in DMSO) was added and the mixture was incubated for another 30 min at 37° C. Reactions were quenched with SDS loading buffer (15 μL—4λ) and run on SDS-PAGE.

FAAH [4] = target: T4, FAAH (Mus musculus, UniProt O08914); test: In vitro competitive activity-based protein profiling, FAAH, mouse; conditions: read-out: FAAH % inh. 1 μM (mouse)
T4 sequence (O08914 1-579): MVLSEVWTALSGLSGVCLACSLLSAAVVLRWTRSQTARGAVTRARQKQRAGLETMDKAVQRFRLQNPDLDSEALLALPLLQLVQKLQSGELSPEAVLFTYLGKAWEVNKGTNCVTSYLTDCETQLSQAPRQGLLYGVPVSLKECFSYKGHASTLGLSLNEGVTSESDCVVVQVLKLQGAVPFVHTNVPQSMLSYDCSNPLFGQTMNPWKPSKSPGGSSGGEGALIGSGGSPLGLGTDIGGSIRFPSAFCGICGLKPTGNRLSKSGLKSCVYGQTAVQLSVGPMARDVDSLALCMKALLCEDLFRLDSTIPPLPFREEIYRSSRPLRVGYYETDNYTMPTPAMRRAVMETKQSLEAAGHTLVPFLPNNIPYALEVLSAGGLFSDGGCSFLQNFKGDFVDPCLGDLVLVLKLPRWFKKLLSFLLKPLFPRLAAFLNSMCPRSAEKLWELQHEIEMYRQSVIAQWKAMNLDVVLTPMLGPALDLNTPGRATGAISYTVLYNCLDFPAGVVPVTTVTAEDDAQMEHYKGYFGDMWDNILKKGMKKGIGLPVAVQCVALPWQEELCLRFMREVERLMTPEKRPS

inhibition at 1 µM (MAGL [1]) [%]	IC50 (FAAH [2]) [µM]	inhibition at 1 µM (FAAH [2]) [%]	inhibition at 1 µM (MAGL [3]) [%]	inhibition at 1 µM (FAAH [4]) [%]	IC50 (MAGL [1]) [µM]	SMILES
> 75	0.1 to 1	> 75	> 75	> 75	–	Cc1cc(-c2ccccc2)ccc1CN1CCN(C(=O)n2ccc(C(=O)O)n2)C(C)C1 (centres unmarked) [Example 89, 1-(2-methyl-4-((3-methyl-[1,1′-biphenyl]-4-yl)methyl)piperazine-1-carbonyl)-1H-pyrazole-3-carboxylic acid]
> 75	–	0 to 25	> 75	0 to 25	–	C[C@@H]1CCCCN1c1cc(C(F)(F)F)ccc1CN1CCN(C(=O)n2ccc(C(=O)O)n2)CC1 [Example 103, (R)-1-(4-(2-(2-methylpiperidin-1-yl)-4-(trifluoromethyl)benzyl)piperazine-1-carbonyl)-1H-pyrazole-3-carboxylic acid]
50 to 75	–	0 to 25	25 to 50	0 to 25	–	O=C(O)c1ccn(C(=O)N2CCN(Cc3cccc(Oc4cccnc4)c3)CC2)n1 [Example 18, 1-(4-(3-(Pyridin-3-yloxy)benzyl)piperazine-1-carbonyl)-1H-pyrazole-3-carboxylic Acid]
> 75	–	0 to 25	> 75	0 to 25	–	CN(Cc1cccc(Cl)c1N1CCCC1)C1(C)CCN(C(=O)n2ccc(C(=O)O)n2)CC1 [Example 47, 1-(4-((3-chloro-2-(pyrrolidin-1-yl)benzyl)(methyl)amino)-4-methylpiperidine-1-carbonyl)-1H-pyrazole-3-carboxylic acid]
> 75	–	> 75	0 to 25	> 75	–	NC(=O)c1ccn(C(=O)N2CCC3(CCN(Cc4ccc(N5CCCC5)cc4C(F)(F)F)C3)CC2)n1 [Example 195, 1-(2-(4-(pyrrolidin-1-yl)-2-(trifluoromethyl)benzyl)-2,8-diazaspiro[4.5]decane-8-carbonyl)-1H-pyrazole-3-carboxamide]
> 75	–	0 to 25	50 to 75	0 to 25	–	O=C(O)c1ccn(C(=O)N2CCN(Cc3ccc(C(F)(F)F)cc3-c3nnn[nH]3)CC2)n1 [Example 5, 1-(4-(2-(1H-Tetrazol-5-yl)-4-(trifluoromethyl)benzyl)piperazine-1-carbonyl)-1H-pyrazole-3-carboxylic Acid]
> 75	1 to 10	25 to 50	> 75	> 75	0.1 to 1	O=C(O)c1nn(C(=O)N2CCC3(CCCN3Cc3cc4ccc(C(F)(F)F)cc4s3)CC2)cc1C(F)(F)F [Example 149, 4-(trifluoromethyl)-1-(1-((6-(trifluoromethyl)benzo[b]thiophen-2-yl)methyl)-1,8-diazaspiro[4.5]decane-8-carbonyl)-1H-pyrazole-3-carboxylic acid]
> 75	–	> 75	> 75	> 75	–	NC(=O)c1ccn(C(=O)N2CC3CN(Cc4ccc(Cl)cc4)CC3C2)n1 (centres unmarked) [Example 203, 1-(5-(4-chlorobenzyl)octa-hydropyrrolo[3,4-c]pyrrole-2-carbonyl)-1H-pyrazole-3-carboxamide]
> 75	0.1 to 1	> 75	> 75	> 75	–	O=C(O)c1ccn(C(=O)N2C[C@H]3C[C@H](OCc4cc(F)cc(Cl)c4)C[C@H]3C2)n1 [Example 53, 1-(trans-5-((3-chloro-5-fluorobenzyl)oxy)octahydrocyclopenta [c]pyrrole-2-carbonyl)-1H-pyrazole-3-carboxylic acid]
> 75	–	> 75	> 75	> 75	–	CN(Cc1ccccc1Cl)[C@H]1C[C@@H]2CN(C(=O)n3cc(Cl)c(C(N)=O)n3)C[C@@H]2C1 [Example 128]
